Legend:
Format in all cases: in vivo
[1] = test system: soybean (Glycine max var. Winchester); assay: Preemergence herbicidal activity, soybean; details: Rate of Application 0.3 Kg/Ha, examined after 12-17 days
[2] = test system: wheat (Triticum aestivum var. Lew); assay: Preemergence herbicidal activity, wheat; details: Rate of Application 0.3 Kg/Ha, examined after 12-17 days
[3] = test system: field corn (Zea mays var. Pioneer 3732); assay: Preemergence herbicidal activity, corn; details: Rate of Application 0.3 Kg/Ha, examined after 12-17 days
[4] = test system: velvetleaf (Abutilon theophrasti); assay: Preemergence herbicidal activity, velvetleaf; details: Rate of Application 0.3 Kg/Ha, examined after 12-17 days
[5] = test system: morningglory (Ipomea lacunosa or Ipomea hederacea); assay: Preemergence herbicidal activity, morningglory; details: Rate of Application 0.3 Kg/Ha, examined after 12-17 days
[6] = test system: common chickweed (Stellaria media); assay: Preemergence herbicidal activity, chickweed; details: Rate of Application 0.3 Kg/Ha, examined after 12-17 days
[7] = test system: common cocklebur (Xanthium strumarium L.); assay: Preemergence herbicidal activity, cocklebur; details: Rate of Application 0.3 Kg/Ha, examined after 12-17 days
[8] = test system: blackgrass (Aloepecurus myosuroides); assay: Preemergence herbicidal activity, blackgrass; details: Rate of Application 0.3 Kg/Ha, examined after 12-17 days
[9] = test system: green foxtail (Setaria viridis); assay: Preemergence herbicidal activity, green foxtail; details: Rate of Application 0.3 Kg/Ha, examined after 12-17 days
[10] = test system: Johnsongrass (Sorghum halepense); assay: Preemergence herbicidal activity, johnsongrass; details: Rate of Application 0.3 Kg/Ha, examined after 12-17 days
[11] = test system: soybean (Glycine max var. Winchester); assay: Postemergence herbicidal activity, soybean; details: rate of application 0.3 Kg/Ha, rated after 12-17 days
[12] = test system: wheat (Triticum aestivum var. Lew); assay: Postemergence herbicidal activity, wheat; details: rate of application 0.3 Kg/Ha, rated after 12-17 days
[13] = test system: field corn (Zea mays var. Pioneer 3732); assay: Postemergence herbicidal activity, corn; details: rate of application 0.3 Kg/Ha, rated after 12-17 days
[14] = test system: velvetleaf (Abutilon theophrasti); assay: Postemergence herbicidal activity, velvetleaf; details: rate of application 0.3 Kg/Ha, rated after 12-17 days
[15] = test system: morningglory (Ipomea lacunosa or Ipomea hederacea); assay: Postemergence herbicidal activity, morningglory; details: rate of application 0.3 Kg/Ha, rated after 12-17 days
[16] = test system: common chickweed (Stellaria media); assay: Postemergence herbicidal activity, chickweed; details: rate of application 0.3 Kg/Ha, rated after 12-17 days
[17] = test system: common cocklebur (Xanthium strumarium L.); assay: Postemergence herbicidal activity, cocklebur; details: rate of application 0.3 Kg/Ha, rated after 12-17 days
[18] = test system: blackgrass (Aloepecurus myosuroides); assay: Postemergence herbicidal activity, blackgrass; details: rate of application 0.3 Kg/Ha, rated after 12-17 days
[19] = test system: green foxtail (Setaria viridis); assay: Postemergence herbicidal activity, green foxtail; details: rate of application 0.3 Kg/Ha, rated after 12-17 days
[20] = test system: Johnsongrass (Sorghum halepense); assay: Postemergence herbicidal activity, johnsongrass; details: rate of application 0.3 Kg/Ha, rated after 12-17 days

Row | Compound | PREEMERGENCE HERBICIDAL ACTIVITY (% CONTROL) SOY [1] | PREEMERGENCE HERBICIDAL ACTIVITY (% CONTROL) WHT [2] | PREEMERGENCE HERBICIDAL ACTIVITY (% CONTROL) CRN [3] | PREEMERGENCE HERBICIDAL ACTIVITY (% CONTROL) ABUTH [4] | PREEMERGENCE HERBICIDAL ACTIVITY (% CONTROL) IPOSS [5] | PREEMERGENCE HERBICIDAL ACTIVITY (% CONTROL) STEME [6] | PREEMERGENCE HERBICIDAL ACTIVITY (% CONTROL) XANPE [7] | PREEMERGENCE HERBICIDAL ACTIVITY (% CONTROL) ALOMY [8] | PREEMERGENCE HERBICIDAL ACTIVITY (% CONTROL) SETVI [9] | PREEMERGENCE HERBICIDAL ACTIVITY (% CONTROL) SORHA [10] | Postemergence herbicidal activity (% control) SOY [11] | Postemergence herbicidal activity (% control) WHT [12] | Postemergence herbicidal activity (% control) CRN [13] | Postemergence herbicidal activity (% control) ABUTH [14] | Postemergence herbicidal activity (% control) IPOSS [15] | Postemergence herbicidal activity (% control) STEME [16] | Postemergence herbicidal activity (% control) XANPE [17] | Postemergence herbicidal activity (% control) ALOMY [18] | Postemergence herbicidal activity (% control) SETVI [19] | Postemergence herbicidal activity (% control) SORHA [20]
1 | CCOC(=O)CCc1nc2c(-n3c(=O)cc(C(F)(F)F)n(C)c3=O)c(F)cc(Cl)c2[nH]1 [Compound 372] | 100% | 90% | 95% | 100% | 100% | 100% | 100% | 80% | 100% | 80% | 100% | 100% | 100% | 100% | 100% | 100% | 100% | 100% | 100% | 100%
2 | Cn1c(C(F)(F)F)cc(=O)n(-c2c(F)cc(Cl)c3[nH]c(C4CCCCC4)nc23)c1=O [Compound 373] | 100% | 70% | 90% | 100% | 100% | 100% | 100% | 70% | 100% | 90% | 100% | 80% | 100% | 100% | 100% | 100% | 100% | 100% | 100% | 100%
3 | Cn1c(C(F)(F)F)cc(=O)n(-c2c(F)cc(Cl)c3[nH]c(C45CC6CC(CC(C6)C4)C5)nc23)c1=O [Compound 374] | 30% | 0% | 10% | 100% | 95% | 90% | 80% | 40% | 100% | 75% | 80% | 25% | 30% | 100% | 95% | 80% | 100% | 25% | 80% | 60%

— patent publication US6352958B1, “Cycloimido-substituted benzofused heterocyclic herbicides” (FMC Corporation, priority 1997, dated 2002)
